Measured values from patent US20080207705A1, “Heteroaryl-Imidazole Derivatives as Cannabinoid CB1 Receptor Antagonists” (Green Cross Corporation, priority 2007, published 2008).

molecular target: T1, rat CB-1 receptor (Rattus norvegicus, UniProt P20272); assay: rat CB-1 receptor binding protocol with [3H]CP-55940; conditions: not given
T1 construct: The tissue obtained from the brain of SD rats was homogenized; from tissue; host or cells: brain of SD rats (membrane pellet of homogenate)
T1 sequence (P20272 whole entry): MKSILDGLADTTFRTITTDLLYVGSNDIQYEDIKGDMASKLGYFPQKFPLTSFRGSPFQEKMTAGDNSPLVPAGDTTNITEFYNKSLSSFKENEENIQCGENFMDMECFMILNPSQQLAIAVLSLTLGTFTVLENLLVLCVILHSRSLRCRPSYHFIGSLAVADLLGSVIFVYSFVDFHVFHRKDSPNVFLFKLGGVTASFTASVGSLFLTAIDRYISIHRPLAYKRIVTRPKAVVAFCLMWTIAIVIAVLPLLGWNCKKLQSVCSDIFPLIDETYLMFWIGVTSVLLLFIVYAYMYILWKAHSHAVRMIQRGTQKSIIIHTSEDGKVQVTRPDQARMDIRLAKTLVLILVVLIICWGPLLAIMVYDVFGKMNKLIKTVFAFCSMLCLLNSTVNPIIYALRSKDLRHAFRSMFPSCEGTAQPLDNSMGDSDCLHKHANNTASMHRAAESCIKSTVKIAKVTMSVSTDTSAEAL

SMILES	IC50 [nM]
CC(C)(C)c1nnc(-c2nc(-c3ccc(Cl)cc3Cl)n(-c3ccc(Cl)cc3)c2C2CC2)s1 [Example 113, 2-tert-Butyl-5-(1-(4-chlorophenyl)-5-cyclopropyl-2-(2,4-dichlorophenyl)-1H-imidazol-4-yl)-1,3,4-thiadiazole]	58

same assay, conditions: [3H]CP-55940, brain tissue of SD rats, 30 °C for 60 min; read-out: IC50

SMILES	IC50 [nM]
Clc1ccc(-n2c(-c3ccc(Cl)cc3Cl)nc(-c3nnc(C4(c5ccc(Cl)cc5)CC4)o3)c2Cn2cncn2)cc1 [Example 88, 2-(5-((1H-1,2,4-Triazol-1-yl)methyl)-1-(4-chlorophenyl)-2-(2,4-dichlorophenyl)-1H-imidazol-4-yl)-5-(1-(4-chlorophenyl)cyclopropyl)-1,3,4-oxadiazole]	1.53
FC(F)(F)C1(c2nnc(-c3nc(-c4ccc(Cl)cc4Cl)n(-c4ccc(Cl)cc4)c3Cn3cncn3)o2)CC1 [Example 89, 2-(5-((1H-1,2,4-Triazol-1-yl)methyl)-1-(4-chlorophenyl)-2-(2,4-dichlorophenyl)-1H-imidazol-4-yl)-5-(1-(trifluoromethyl)cyclopropyl)-1,3,4-oxadiazole]	1.14
Cc1c(-c2nnc(C(C)(C)C)s2)nc(-c2ccc(Cl)cc2Cl)n1-c1ccc(Cl)cc1 [Example 90, 2-tert-Butyl-5-(1-(4-chlorophenyl)-2-(2,4-dichlorophenyl)-5-methyl-1H-imidazol-4-yl)-1,3,4-thiadiazole]	20.2
Cc1c(-c2nnc(C3CCCCC3)s2)nc(-c2ccc(Cl)cc2Cl)n1-c1ccc(Cl)cc1 [Example 91, 2-(1-(4-Chlorophenyl)-2-(2,4-dichlorophenyl)-5-methyl-1H-imidazol-4-yl)-5-cyclohexyl-1,3,4-thiadiazole]	46
Cc1c(-c2nnc(C3CCCC3)s2)nc(-c2ccc(Cl)cc2Cl)n1-c1ccc(Cl)cc1 [Example 92, 2-(1-(4-Chlorophenyl)-2-(2,4-dichlorophenyl)-5-methyl-1H-imidazol-4-yl)-5-cyclopentyl-1,3,4-thiadiazole]	10.8
Cc1c(-c2nnc(C3CCC3)s2)nc(-c2ccc(Cl)cc2Cl)n1-c1ccc(Cl)cc1 [Example 93, 2-(1-(4-Chlorophenyl)-2-(2,4-dichlorophenyl)-5-methyl-1H-imidazol-4-yl)-5-cyclobutyl-1,3,4-thiadiazole]	42.3
Cc1c(-c2nnc(C3CCCCCC3)s2)nc(-c2ccc(Cl)cc2Cl)n1-c1ccc(Cl)cc1 [Example 94, 2-(1-(4-Chlorophenyl)-2-(2,4-dichlorophenyl)-5-methyl-1H-imidazol-4-yl)-5-cycloheptyl-1,3,4-thiadiazole]	21.6
CCCCC(C)c1nnc(-c2nc(-c3ccc(Cl)cc3Cl)n(-c3ccc(Cl)cc3)c2C)s1 (stereo not drawn) [Example 95, 2-(1-(4-Chlorophenyl)-2-(2,4-dichlorophenyl)-5-methyl-1H-imidazol-4-yl)-5-(hexan-2-yl)-1,3,4-thiadiazole]	15
CCCC(C)c1nnc(-c2nc(-c3ccc(Cl)cc3Cl)n(-c3ccc(Cl)cc3)c2C)s1 (stereo not drawn) [Example 96, 2-(1-(4-Chlorophenyl)-2-(2,4-dichlorophenyl)-5-methyl-1H-imidazol-4-yl)-5-(pentan-2-yl)-1,3,4-thiadiazole]	12.7
CCC(C)c1nnc(-c2nc(-c3ccc(Cl)cc3Cl)n(-c3ccc(Cl)cc3)c2C)s1 (stereo not drawn) [Example 97, 2-sec-Butyl-5-(1-(4-chlorophenyl)-2-(2,4-dichlorophenyl)-5-methyl-1H-imidazol-4-yl)-1,3,4-thiadiazole]	28.1
Cc1c(-c2nnc(C(C)C)s2)nc(-c2ccc(Cl)cc2Cl)n1-c1ccc(Cl)cc1 [Example 98, 2-(1-(4-Chlorophenyl)-2-(2,4-dichlorophenyl)-5-methyl-1H-imidazol-4-yl)-5-isopropyl-1,3,4-thiadiazole]	22.2
CCC(CC)c1nnc(-c2nc(-c3ccc(Cl)cc3Cl)n(-c3ccc(Cl)cc3)c2C)s1 [Example 99, 2-(1-(4-Chlorophenyl)-2-(2,4-dichlorophenyl)-5-methyl-1H-imidazol-4-yl)-5-(pentan-3-yl)-1,3,4-thiadiazole]	19.7
Cc1c(-c2nnc(C(C)c3ccccc3)s2)nc(-c2ccc(Cl)cc2Cl)n1-c1ccc(Cl)cc1 (stereo not drawn) [Example 100, 2-(1-(4-Chlorophenyl)-2-(2,4-dichlorophenyl)-5-methyl-1H-imidazol-4-yl)-5-(1-phenylethyl)-1,3,4-thiadiazole]	16.9
CCc1c(-c2nnc(C3CCCC3)s2)nc(-c2ccc(Cl)cc2Cl)n1-c1ccc(Cl)cc1 [Example 102, 2-(1-(4-Chlorophenyl)-2-(2,4-dichlorophenyl)-5-ethyl-1H-imidazol-4-yl)-5-cyclopentyl-1,3,4-thiadiazole]	17.6
CCc1c(-c2nnc(C3CCC3)s2)nc(-c2ccc(Cl)cc2Cl)n1-c1ccc(Cl)cc1 [Example 103, 2-(1-(4-Chlorophenyl)-2-(2,4-dichlorophenyl)-5-ethyl-1H-imidazol-4-yl)-5-cyclobutyl-1,3,4-thiadiazole]	16.1
CCc1c(-c2nnc(C(C)(C)C)s2)nc(-c2ccc(Cl)cc2Cl)n1-c1ccc(Cl)cc1 [Example 104, 2-tert-Butyl-5-(1-(4-chlorophenyl)-2-(2,4-dichlorophenyl)-5-ethyl-1H-imidazol-4-yl)-1,3,4-thiadiazole]	15.8

SMILES	IC50 [nM]
CCCCC(C)c1nnc(-c2nc(-c3ccc(Cl)cc3Cl)n(-c3ccc(Cl)cc3)c2CC)s1 (stereo not drawn) [Example 105, 2-(1-(4-Chlorophenyl)-2-(2,4-dichlorophenyl)-5-ethyl-1H-imidazol-4-yl)-5-(hexan-2-yl)-1,3,4-thiadiazole]	8.05
CCCC(C)c1nnc(-c2nc(-c3ccc(Cl)cc3Cl)n(-c3ccc(Cl)cc3)c2CC)s1 (stereo not drawn) [Example 106, 2-(1-(4-Chlorophenyl)-2-(2,4-dichlorophenyl)-5-ethyl-1H-imidazol-4-yl)-5-(pentan-2-yl)-1,3,4-thiadiazole]	12.9
CCc1c(-c2nnc(C(C)CC)s2)nc(-c2ccc(Cl)cc2Cl)n1-c1ccc(Cl)cc1 (stereo not drawn) [Example 107, 2-sec-Butyl-5-(1-(4-chlorophenyl)-2-(2,4-dichlorophenyl)-5-ethyl-1H-imidazol-4-yl)-1,3,4-thiadiazole]	8.46
Cc1c(-c2nnc(C3CCCCC3)s2)nc(-c2ccc(Cl)cc2Cl)n1-c1ccc(Br)cc1 [Example 108, 2-(1-(4-Bromophenyl)-2-(2,4-dichlorophenyl)-5-methyl-1H-imidazol-4-yl)-5-cyclohexyl-1,3,4-thiadiazole]	56.6
Cc1c(-c2nnc(C(C)(C)C)s2)nc(-c2ccc(Cl)cc2Cl)n1-c1ccc(Br)cc1 [Example 109, 2-(1-(4-Bromophenyl)-2-(2,4-dichlorophenyl)-5-methyl-1H-imidazol-4-yl)-5-tert-butyl-1,3,4-thiadiazole]	3.45
CCc1c(-c2nnc(C(C)(C)C)s2)nc(-c2ccc(Cl)cc2Cl)n1-c1ccc(Br)cc1 [Example 110, 2-(1-(4-Bromophenyl)-2-(2,4-dichlorophenyl)-5-ethyl-1H-imidazol-4-yl)-5-tert-butyl-1,3,4-thiadiazole]	1.91
Cc1c(-c2nnc(C3CCC3)s2)nc(-c2ccc(Cl)cc2Cl)n1-c1ccc(Br)cc1 [Example 111, 2-(1-(4-Bromophenyl)-2-(2,4-dichlorophenyl)-5-methyl-1H-imidazol-4-yl)-5-cyclobutyl-1,3,4-thiadiazole]	27.8
CCc1c(-c2nnc(C3CCC3)s2)nc(-c2ccc(Cl)cc2Cl)n1-c1ccc(Br)cc1 [Example 112, 2-(1-(4-Bromophenyl)-2-(2,4-dichlorophenyl)-5-ethyl-1H-imidazol-4-yl)-5-cyclobutyl-1,3,4-thiadiazole]	14
CC(C)c1c(-c2nnc(C(C)(C)C)s2)nc(-c2ccc(Cl)cc2Cl)n1-c1ccc(Br)cc1 [Example 114, 2-(1-(4-Bromophenyl)-2-(2,4-dichlorophenyl)-5-isopropyl-1H-imidazo-4-yl)-5-tert-butyl-1,3,4-thiadiazole]	6.49
CC(C)c1c(-c2nnc(C3(c4ccccc4)CC3)s2)nc(-c2ccc(Cl)cc2Cl)n1-c1ccc(Br)cc1 [Example 116, 2-(1-(4-Bromophenyl)-2-(2,4-dichlorophenyl)-5-isopropyl-1H-imidazol-4-yl)-5-(1-phenylcyclopropyl)-1,3,4-thiadiazole]	5.66
CCc1c(-c2nnc(C3(c4ccccc4)CC3)s2)nc(-c2ccc(Cl)cc2Cl)n1-c1ccc(Br)cc1 [Example 117, 2-(1-(4-Bromophenyl)-2-(2,4-dichlorophenyl)-5-ethyl-1H-imidazol-4-yl)-5-(1-phenylcyclopropyl)-1,3,4-thiadiazole]	8.29
CC(C)c1c(-c2nnc(C3(c4ccccc4)CC3)s2)nc(-c2ccc(Cl)cc2Cl)n1-c1ccc(Cl)cc1 [Example 118, 2-(1-(4-Chlorophenyl)-2-(2,4-dichlorophenyl)-5-isopropyl-1H-imidazol-4-yl)-5-(1-phenylcyclopropyl)-1,3,4-thiadiazole]	7.54
CCCc1c(-c2nnc(C(C)(C)C)s2)nc(-c2ccc(Cl)cc2Cl)n1-c1ccc(Br)cc1 [Example 119, 2-(1-(4-Bromophenyl)-2-(2,4-dichlorophenyl)-5-propyl-1H-imidazol-4-yl)-5-tert-butyl-1,3,4-thiadiazole]	13.5
CCCc1c(-c2nnc(C3CCCCC3)s2)nc(-c2ccc(Cl)cc2Cl)n1-c1ccc(Br)cc1 [Example 120, 2-(1-(4-Bromophenyl)-2-(2,4-dichlorophenyl)-5-propyl-1H-imidazol-4-yl)-5-cyclohexyl-1,3,4-thiadiazole]	44.3
CCCc1c(-c2nnc(C3(c4ccccc4)CC3)s2)nc(-c2ccc(Cl)cc2Cl)n1-c1ccc(Br)cc1 [Example 121, 2-(1-(4-Bromophenyl)-2-(2,4-dichlorophenyl)-5-propyl-1H-imidazol-4-yl)-5-(1-phenylcyclopropyl)-1,3,4-thiadiazole]	13.2
CCCc1c(-c2nnc(C3CCC3)s2)nc(-c2ccc(Cl)cc2Cl)n1-c1ccc(Br)cc1 [Example 122, 2-(1-(4-Bromophenyl)-2-(2,4-dichlorophenyl)-5-propyl-1H-imidazol-4-yl)-5-cyclobutyl-1,3,4-thiadiazole]	37.4
